Experiments:
[1] = cited from earlier work
[2] = human liver microsomes; cited from earlier work
[3] = system: potassium ion channel coded by hERG; conditions: compound concentration as high as 300 µM; cited from earlier work
[4] = system: L. donovani (axenic amastigote stage, MHOM-ET-67/L82); conditions: relative to 1d
[5] = system: P. falciparum (erythrocytic stage, K1 strain); conditions: relative to the standard (chloroquine)

CCc1ccc(C(=O)NC(=O)c2ccccc2O)cc1 [Compound 1a, N-(4-Ethylbenzoyl)-2-hydroxybenzamide]
protein binding in human plasma [1]: 99.9% | intrinsic clearance / metabolism rate in HLM [2]: 282 µL/min/mg proteins | hERG inhibition [3]: not inhibited

O=C(NC(=O)c1ccccc1O)c1ccc(C(F)(F)F)cc1 [Compound 1g, 2-Hydroxy-N-(4-(trifluoromethyl)benzoyl)benzamide]
times less potent than 1d against L. donovani [4]: 4 times

O=C(NC(=O)c1ccccc1O)c1ccc2ccccc2c1 [Compound 1t, N-(2-Hydroxybenzoyl)-2-naphthamide]
fold less active than the standard against malaria parasites [5]: 2 fold

OC(Cn1cncn1)(Cn1cncn1)c1ccc(F)cc1F [fluconazole, reference compound]
protein binding in human plasma [1]: 23.7%

Reference: article PMC3330251 (Journal of Medicinal Chemistry, 2012)
